Reference: patent US10648917B2, “Luminescent compositions and applications thereof” (THE PENN STATE RESEARCH FOUNDATION, priority 2015, dated 2020)
“Also recorded” adds a separate entry of the source.

Assays:
[1] = Photostability under continuous excitation for 3 hours; format: physicochemical; conditions: for photobleaching relative to Fluorescein and Rhodamine B: 3 hours continuous excitation
Description: Fluorescence spectra were recorded by a Horiba FluoroMax-4 spectrofluorometer. All samples were measured at a concentration corresponding to an optical density of 0.1 in water and a slit size of 1 nm by 1 nm unless specified. Quantum yields were also determined on same spectrofluorometer by using a Quantum-φ integration sphere at samples' maximum excitation wavelength and at an increment of 0.3 nm. Photostability studies were done by continuously exciting samples at their maximum excitation wavelength and monitoring at the maximum emission wavelength.
Fluorescence spectra were recorded on a Horiba FluoroMax-4 spectrofluorometer (Horiba Scientific, Edison N.J.). All polymer and samples were characterized at a concentration of 2 wt % in 1,4-dioxane and a slit size of 1 nm by 1 nm unless otherwise specified. The fluorescence properties of small molecule dyes were also measure in 2 wt % DI water solutions at same conditions as polymer solutions. BPLPs were also degraded in 1M K2CO3 solution at 37° C. for 24 hours and then neutralized with 1N HCl solution to pH7. The resulting degradation solutions were subject to further PL characterizations. Quantum yields were also determined on the same spectrofluorometer by using a Quantum-φ integration sphere (Horiba Scientific, Edison N.J.) at the same concentration and slit size with the blank solvent as the reference. Photostability of small molecules and polymers were determined by monitoring the emission intensity decay at their max. Excitation and emission wavelengths over 3 hours of continuous lumination in the spectrofluorometer.
Photostability of CFDs was characterized thereafter, since traditional organic dyes suffer from photobleaching. Various CFDs were tested under their maximum excitation and emission wavelengths for 3 hours, and the photoluminescence was normalized to the initial intensity.

[2] = Acid-base titration with NaOH (pKa, protolytic states); format: physicochemical
Description: The pKa values of CA-Cys were determined through acid-base titration with NaOH. Titration curves support the presence of two carboxyl groups with close pKa values for two reasons. The molar mass of CA-Cys, 241 g/mol as determined by LC-ESI-MS, matches the molar mass value of 245.6 g/mol determined by titration only when assuming a diprotic acid. Moreover, the long buffered region of the titration curve supports the presence of two carboxyl groups with close pKas that are overlapping the first inflection point, estimated to be at ½ NaOH volume of the end point.
Based on the pKa values determined from 2.4, a theoretical protolytic equilibria was established based on equations 1-3 below: […]

[3] = Halide fluorescence quenching (Stern-Volmer); format: physicochemical
Description: Absorbance Spectra were recorded on Tecan Infinite M200 Pro UV-vis spectroscopy, and fluorescence spectra were recorded on Horiba FluoroMax-4 fluorospectroscopy at concentrations below 0.1 O.D. unless otherwise indicated. Quantum Yields were measured on the Quantum φ Integrating Sphere accessory to the FluoroMax-4, while lifetime measurements were determined through the Time-Correlation Single Photon Counting (TCSPC) accessory to the FluroMax-4. TCSPC was utilized in conjunction with NanoLED pulsed diode light source with peak excitation wavelength at 352 nm and at 10,000 counts peak preset. Emission was collected at the fluorescence λmax, unless otherwise indicated. For all pH-dependence experiments, sample pH was adjusted with sulfuric acid or sodium hydroxide. For all chloride-dependent quenching experiments, magnesium chloride hexahydrate (Sigma Aldrich) was used.
When a fluorophore of [F] absorbs light energy, excitation raises a sub-population of [F] to the excited state, [F*], which then rapidly lose energy along radiative relaxation (kr) or non-radiative relaxation (knr) according to equation 7. If a quencher forms a complex with the excited fluorophore, an extra non-radiative component, kq, is added to equation 7 to account for the additional relaxation pathway that is a function of quencher concentration and its association constant.
[formula] Thus the quenching of fluorescence can be quantitatively analyzed by comparing the affected lifetimes. The Stern-Volmer (SV) relationship is used to determine kq, the bimolecular quenching rate constant for the diffusion coefficients of the fluorophore and quencher, by deriving a plot of τ0/τ versus [Q]:
[formula] Thus the linear slope of the SV plot, KSV, measures the efficiency of the quencher. Since sulfuric acid was used to study proton-induced quenching, the pH value was a better indicator of [H^+] due to incomplete dissociation of sulfuric acid at high concentrations. In the case of multiple quenchers, as will be discussed in this paper, equation 7 must include additional kq terms that result in modified form of equation 12 below:
[formula] If the two quenchers are act independently, the quencher of known quenching rate and concentration can be combined into the Y-intercept term in order to determine the quenching rate of the second, unknown quencher. […]
To translate halide quenching into quantitative sensing applications, a modified Stern-Volmer equation (Equation 14) was used to linearize the effects of two quenchers, protons and the halide being studied, on the fluorescence of CA-Cysteine. […]
Since the measured sample fluorescence is quenched by both protons and halides, the unquenched fluorescence, Io, was defined as the fluorescence of the neutral state CA-Cysteine in the absence of additional proton or halide quenchers. As mentioned above, the effects of protolytic equilibria stabilize around pH 2.2, where CA-Cysteine undergoes 99% conversion from the dianion state and is marked by constant fluorescence intensities (FIG. 13). […] Thus we chose the fluorescence intensity at pH 2.2 (in the absence of halides) as the unquenched reference signal, Io. IH,Cl in equation 23 is the sample fluorescence at the pH and halide concentration indicated. […]

[4] = Chlorine sensing by fluorescence titration; format: physicochemical
Excerpt: This chlorine detection method seems to be much more sensitive than for halide detection, as chlorine in tap water diluted 1:2 can be measured. Furthermore, because measurement is based on the titration point, the presence of halides in solution would only lower the slope of the fluorescence plots without affecting the titration point. In reverse order of what observed results for halide quenching, sensing of bromine is much less sensitive than chlorine. Visual confirmation of the titration point is possible with a UV lamp, allowing for a low-cost and low-tech method of chlorine determination. It should also be noted that by varying the use of amine-containing molecules used in the syntheses of fluorophores described herein, it was possible to tune the chloride sensing at neutral pH.

3T3 cells = assay: Fluorescence cell labelling, confocal microscopy; format: cell-based, mouse; conditions: 500 μg/ml for 24 hours; DAPI, FITC, Cy3 channels

SMILES | photobleaching relative to Fluorescein and Rhodamine B [1] | pKa1 (3-carboxyl group) [2] | pKa2 (7-carboxyl group) [2] | Exists at pH ([2]; Anion protolytic state) | Exists at pH ([2]; Dianion protolytic state) | Exists at pH ([2]; Neutral protolytic state) | fluorescence quenching by magnesium sulfate and sodium sulfate [3] | fluorescence quenching by bromide and iodide ([3]; compared with chloride) | fluorescence quenching by magnesium chloride ([3]; pH 8.2) | fluorescence quenching by magnesium chloride ([3]; strongly acidic conditions (pH 2.4)) | photostability ([1]; FIG. 19) | luminescence lost ([1]; after 3 hours continuous excitation) | fluorescence remaining ([1]; after continuous UV excitation for 3 hours) [%] | sensitivity to chlorine [4] | fluorescence from cells after uptake (3T3 cells)
CC(C(=O)O)N1C(=O)C=C(C(=O)O)CC1=O (stereo not shown) [CA-Ala] | photobleaching on par with Fluorescein but more resistant than Rhodamine B |  |  |  |  |  |  |  |  |  |  |  |  |  | 
O=C(O)c1cc2n(c(=O)c1)C(C(=O)O)CS2 (stereo not shown) [CA-Cys] | less stable | 2.345 | 3.41 | 2.35~3.41 | >3.41 | <2.35 | did not quench fluorescence under any conditions | quenched by bromide and iodide at even greater affinities | no significant quenching | quenched | strong photostability | less than 3% | 95 | sensitive to chlorine | Strong fluorescence was observed; also recorded: strong DAPI-channel fluorescence
